One assay deals with Rhodotorula glutinis. As to the kind of experiment: Antimicrobial activity against Rhodotorula glutinis DSM 10134 by serial dilution assay. The format is functional, organism-based.
The next assay concerns A-431. Kind of assay: Cytotoxicity against human A431 cells by MTT assay. The format is functional, cell-based. On the technique in general: Tetrazolium dyes change colour on reduction, which living cells bring about.
The subject of the next assay is Escherichia coli. As to the kind of experiment: Antimicrobial activity against Escherichia coli harboring TolC mutant by serial dilution assay. In kind it is functional.
The subject of the next assay is KB 3-1. As to the kind of experiment: Cytotoxicity against human KB3-1 cells by MTT assay. In kind it is functional, cell-based.
The next assay relates to Staphylococcus aureus. Kind of assay: Antimicrobial activity against Staphylococcus aureus DSM346 by serial dilution assay. The format is functional.
Another assay concerns MCF7. Kind of assay: Cytotoxicity against human MCF7 cells by MTT assay. The format is functional, cell-based.
In another assay the test system is Bacillus subtilis. Kind of assay: Antimicrobial activity against Bacillus subtilis DSM 10 by serial dilution assay. In kind it is functional.
Another assay relates to Micrococcus luteus. As to the kind of experiment: Antimicrobial activity against Micrococcus luteus DSM 1790 by serial dilution assay. In kind it is functional.
For a further assay, the system named is L929. Kind of assay: Cytotoxicity against mouse L929 cells by MTT assay. In kind it is cell-based.
The subject of another assay is Mucor plumbeus. As to the kind of experiment: Antimicrobial activity against Mucor plumbeus MUCL49355 by serial dilution assay. The format is functional.

In brackets after ≈: the same amount, converted by molar mass. Activity calls are given as the source filed them. The calls are words filed in the database; no cut-off is given here.

As to `CC1=CC(=O)[C@]2(C1=O)[C@H](C)CC[C@@H]2[C@H](C)CO`, the result in the assay with Rhodotorula glutinis was Active.

Turning to `CC1=C/C(=C2\[C@H](C)CC[C@@H]2[C@H](C)CO)OC1=O`, the result in the assay with Rhodotorula glutinis was Active.

One may read the IC50 as the midpoint of a concentration-inhibition curve. High values mean weaker potency, low ones greater potency. In general, MIC refers to the lowest concentration that inhibits growth of the organism. A higher MIC goes with a need for much substance. On to `Cc1cc(C2=C(C(C)C)CC[C@H]2C)oc(=O)c1O`, for which the IC50 with A-431 came to 12 µM; in the assay with KB 3-1 it was 2.9 µM; in the assay on MCF7, 9.3 µM; in the assay with L929, 5.6 µM. Further, the MIC in the assay on Escherichia coli, against Staphylococcus aureus, in the assay on Bacillus subtilis and against Micrococcus luteus was 33.3 to 66.7 µg/mL (≈ 134 to 269 µM) in each case. Also, the result in the assay with Rhodotorula glutinis was Active.

In the case of `Cc1cc([C@]23OC[C@@H](C)[C@H]2CC[C@H]3C)oc(=O)c1O`, the outcome with Rhodotorula glutinis was Active.

For the compound `CC1=C(O)C(=O)[C@]23C(=O)[C@H]1[C@H](O)[C@@H](C)[C@H]2CC[C@H]3C`, in the assay on Rhodotorula glutinis, the result was Active.

In the assay with Mucor plumbeus, `CC1=C/C(=C2/[C@H](C)CC[C@@H]2[C@H](C)CO)OC1=O` came in with a minimum inhibitory concentration (MIC) of 8.3 µg/mL (≈ 35.1 µM). Also, the outcome in the assay on Rhodotorula glutinis was Active.

In the case of `CC1=C/C(=C2/[C@H](C)CC[C@@H]2C(C)C)OC1=O`, the MIC against Escherichia coli was 33.3 to 66.7 µg/mL (≈ 151 to 303 µM); against Staphylococcus aureus, 33.3 to 66.7 µg/mL (≈ 151 to 303 µM); with Bacillus subtilis, 33.3 to 66.7 µg/mL (≈ 151 to 303 µM); with Micrococcus luteus, 33.3 to 66.7 µg/mL (≈ 151 to 303 µM); against Mucor plumbeus, 8.3 µg/mL (≈ 37.7 µM). Moreover, in the assay with Rhodotorula glutinis, the result was Active.
